Laboratory results as given in ChEMBL document CHEMBL5233269, “Anticancer potential of spirocompounds in medicinal chemistry: A pentennial expedition” (Eur J Med Chem, 2021).
Values belong to the molecule of their own block, whether it stands above or below them.

Columns and labels:
HepG2 [1] = experiment: Anticancer activity against human HepG2 cells; format: functional, cell-based
MCF7 [2] = experiment: Anticancer activity against human MCF7 cells assessed as inhibition of cell viability; format: functional, cell-based
K562 = experiment: Anticancer activity against human K562 cells; format: functional, cell-based
A549 [3] = experiment: Cytotoxicity against human A549 cells; format: functional, cell-based
HCT-116 [4] = experiment: Cytotoxicity against human HCT-116 cells; format: functional, cell-based
SW-620 = experiment: Cytotoxicity against human SW620 cells; format: functional, cell-based
PC-3 [5] = experiment: Cytotoxicity against human PC-3 cells; format: functional, cell-based
HCT-116 [6] = experiment: Anticancer activity against human HCT-116 cells assessed as inhibition of cell growth; format: functional, cell-based
PC-3 [7] = experiment: Anticancer activity against human PC-3 cells assessed as inhibition of cell growth; format: functional, cell-based
HepG2 [8] = experiment: Anticancer activity against human HepG2 cells assessed as inhibition of cell viability; format: functional, cell-based
[9] = target: T1, Amine oxidase [flavin-containing] A (Rattus norvegicus, UniProt P21396); experiment: Inhibition of rat brain MAO-A relative to control; format: tissue-based
T1 sequence (P21396 whole entry): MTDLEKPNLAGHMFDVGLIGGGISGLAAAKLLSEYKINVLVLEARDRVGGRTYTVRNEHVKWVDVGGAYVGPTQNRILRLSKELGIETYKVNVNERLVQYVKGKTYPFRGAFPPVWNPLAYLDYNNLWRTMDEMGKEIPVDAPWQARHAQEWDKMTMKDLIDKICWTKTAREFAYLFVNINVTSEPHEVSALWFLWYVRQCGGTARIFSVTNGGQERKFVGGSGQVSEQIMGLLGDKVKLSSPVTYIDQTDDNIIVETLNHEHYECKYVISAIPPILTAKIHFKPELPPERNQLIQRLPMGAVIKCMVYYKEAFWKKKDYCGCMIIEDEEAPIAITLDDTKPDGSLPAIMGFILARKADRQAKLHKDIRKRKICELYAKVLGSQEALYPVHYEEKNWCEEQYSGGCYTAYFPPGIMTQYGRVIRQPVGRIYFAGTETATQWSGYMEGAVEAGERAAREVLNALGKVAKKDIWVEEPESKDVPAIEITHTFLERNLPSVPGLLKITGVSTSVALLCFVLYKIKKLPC

HeLa = experiment: Anticancer activity against human HeLa cells; format: functional, cell-based
A549 [10] = experiment: Anticancer activity against human A549 cells assessed as inhibition of cell proliferation; format: functional, cell-based
MCF7 [11] = experiment: Anticancer activity against human MCF7 cells; format: functional, cell-based
DU-145 = experiment: Anticancer activity against human DU-145 cells; format: functional, cell-based
[12] = Cytotoxicity against human HBF4 cells incubated for 48 hrs by SRB assay relative to control; format: toxicity, cell-based; design: concentration or dose not given beside the values; details: hbf4, 48 h
HepG2 [13] = experiment: Cytotoxicity against human HepG2 cells incubated for 48 hrs by SRB assay relative to control; format: functional; design: concentration or dose not given beside the values
MCF7 [14] = experiment: Cytotoxicity against human MCF7 cells incubated for 48 hrs by SRB assay relative to control; format: functional; design: concentration or dose not given beside the values
MDA-MB-435 = experiment: Growth inhibition of human MDA-MB-435 cells by SRB assay; format: functional
MCF7 [15] = experiment: Growth inhibition of human MCF7 cells by SRB assay; format: functional
B16-F10 = experiment: Anticancer activity against mouse B16-F10 cells incubated for 48 hrs by MTT assay; format: functional, cell-based; details: B16-F10, 48 h
A549 [16] = experiment: Anticancer activity against human A549 cells assessed as reduction in cell viability incubated for 48 hrs by MTT assay; format: functional, cell-based; details: A549, 48 h
MCF7 [17] = experiment: Anticancer activity against human MCF7 cells assessed as reduction in cell viability incubated for 48 hrs by MTT assay; format: functional, cell-based; details: MCF7, 48 h

IC50 (HepG2 [1]): 26 µM
IC50 (MCF7 [2]): 28 µM
SMILES: N#CC1=C(N)NC2=C(CCCC2)C12C(=O)Nc1ccc(I)cc12 (centres undefined)

IC50 (K562): 9.7 µM
SMILES: O=C1N(Cc2ccccc2)c2ccccc2[C@@]12[C@H](O)c1ccccc1[C@@H]2[C@]1(CN2CCCCC2)C(=O)N(Cc2ccccc2)c2ccccc21

SMILES: O=C1Oc2cc(Cl)ccc2C2C1CN(C(=O)N1CCCCC1)C21C(=O)Nc2ccccc21 (centres undefined)
IC50 (A549 [3]): 7.09 µM
IC50 (HCT-116 [4]): 15.8 µM
IC50 (SW-620): 0.49 µM
IC50 (PC-3 [5]): > 50 µM

IC50 (HCT-116 [6]): 0.0922 µM
IC50 (PC-3 [7]): 0.121 µM
IC50 (HepG2 [8]): 0.176 µM
SMILES: CC(=O)OC[C@H]1OC(Sc2nnc(/N=C3\CSC4(CCCCC4)N3c3ccc(F)cc3)s2)[C@H](OC(C)=O)[C@@H](OC(C)=O)[C@@H]1OC(C)=O (some centres undefined)

inhibition (INH) [9]: 66%
SMILES: CCn1c(SC)nc2c(c1=O)C1(CCCCC1)Cc1ccccc1-2

IC50 (HeLa): 2.29 µM
IC50 (A549 [10]): 1.35 µM
IC50 (MCF7 [11]): 2.24 µM
IC50 (DU-145): 1.15 µM
SMILES: O=C1OCC2Nc3ccccc3NC3(C(=O)N(Cc4ccccc4)c4ccccc43)C12 (centres undefined)

SMILES: CC1(C)CC(=O)C2=C(C1)N(c1ccccc1)C(N)=C(C#N)C21C(=O)Nc2ccccc21 (centres undefined)
Activity [12]: 23%
Activity (HepG2 [13]): 39%
Activity (MCF7 [14]): 76%

SMILES: CCOC(=O)C1=C2N=C(N)c3ccccc3N2C2=C(C(=O)CC(C)(C)C2)C12C(=O)Nc1ccccc12 (centres undefined)
Activity [12]: 30%
Activity (HepG2 [13]): 29%
Activity (MCF7 [14]): 76%

IC50 (K562): 21.9 µM
SMILES: CN1C(=O)[C@@]2(c3cccc(Cl)c31)[C@H](O)c1ccccc1[C@@H]2[C@]1(CN2CCSCC2)C(=O)N(C)c2c(Cl)cccc21

IC50 (HeLa): 5.37 µM
IC50 (A549 [10]): 2.95 µM
IC50 (MCF7 [11]): 9.51 µM
IC50 (DU-145): 1.7 µM
SMILES: O=C1OCC2Nc3ccc(Cl)cc3NC3(C(=O)Nc4ccccc43)C12 (centres undefined)

IC50 (HepG2 [1]): 20 µM
IC50 (MCF7 [2]): 18 µM
SMILES: N#CC1=C(N)NC2=C(CCCCC2)C12C(=O)Nc1ccccc12 (centres undefined)

IC50 (HCT-116 [6]): 0.12 µM
IC50 (PC-3 [7]): 0.224 µM
IC50 (HepG2 [8]): 0.135 µM
SMILES: CC(=O)OC[C@H]1OC(Sc2nc(-c3ccc(C)o3)c3c(n2)N(c2ccc(F)cc2)C2(CCCCC2)S3)[C@H](OC(C)=O)[C@@H](OC(C)=O)[C@@H]1OC(C)=O (some centres undefined)

SMILES: CCOC(=O)C1=C(N)N(c2ccccc2)C2=C(C(=O)CC(C)(C)C2)C12C(=O)Nc1ccccc12 (centres undefined)
Activity [12]: 24%
Activity (HepG2 [13]): 37%
Activity (MCF7 [14]): 78%

SMILES: CCC(=O)N1CC2C(=O)Oc3ccccc3C2C12C(=O)Nc1cc(Cl)ccc12 (centres undefined)
IC50 (A549 [3]): > 50 µM
IC50 (HCT-116 [4]): > 50 µM
IC50 (SW-620): < 0.08 µM
IC50 (PC-3 [5]): > 50 µM

SMILES: CCC(=O)N1CC2C(=O)Oc3ccccc3C2C12C(=O)Nc1ccccc12 (centres undefined)
IC50 (A549 [3]): 11 µM
IC50 (HCT-116 [4]): 10.2 µM
IC50 (SW-620): 4.28 µM
IC50 (PC-3 [5]): 46.7 µM

SMILES: CN1CCN(C(=O)C2CN(C(=O)N3CCCCC3)C3(C(=O)Nc4cc(Cl)ccc43)C2c2ccccc2O)CC1 (centres undefined)
IC50 (A549 [3]): 1.17 µM
IC50 (HCT-116 [4]): > 50 µM
IC50 (SW-620): 31.6 µM
IC50 (PC-3 [5]): > 50 µM

IC50 (HepG2 [1]): 36 µM
IC50 (MCF7 [2]): 28 µM
SMILES: Cc1ccc2c(c1)C1(C(=O)N2)C(C#N)=C(N)NC2=C1CCCC2 (centres undefined)

GI50 (MDA-MB-435): 29.9 µM
GI50 (MCF7 [15]): 53 µM
SMILES: N#CC1=C(N)OC2=C(C(=O)C=C2)C12C(=O)Nc1ccc(Cl)cc12 (centres undefined)

IC50 (B16-F10): 9.63 µM
IC50 (A549 [16]): 10.4 µM
IC50 (MCF7 [17]): 12.3 µM
SMILES: COC1=CC2(C=C(C(=O)Oc3c(F)cc(F)cc3F)c3cc(OC)cc(OC)c32)C(OC)=CC1=O (centres undefined)

IC50 (HeLa): 11.9 µM
IC50 (A549 [10]): 3.8 µM
IC50 (MCF7 [11]): 2.34 µM
IC50 (DU-145): 3.16 µM
SMILES: O=C1OCC2Nc3ccccc3NC3(C(=O)N(Cc4ccccc4)c4ccc(Br)cc43)C12 (centres undefined)

IC50 (HCT-116 [6]): 0.106 µM
IC50 (PC-3 [7]): 0.112 µM
IC50 (HepG2 [8]): 0.334 µM
SMILES: CC1CCC2(CC1)SC/C(=N\c1nnc(SC3O[C@H](CO)[C@@H](O)[C@H](O)[C@H]3O)s1)N2c1ccc(F)cc1 (some centres undefined)

SMILES: CCOC(=O)C1=C2N=C(N)C3=C(SC4CCCCC34)N2C2=C(C(=O)CC(C)(C)C2)C12C(=O)Nc1ccccc12 (centres undefined)
Activity [12]: 17%
Activity (HepG2 [13]): 25%
Activity (MCF7 [14]): 80%

IC50 (K562): 32.8 µM
SMILES: CN1C(=O)[C@@]2(c3cccc(Cl)c31)[C@H](O)c1ccccc1[C@@H]2[C@]1(CN2CCCCC2)C(=O)N(C)c2c(Cl)cccc21
